The source of these data is ChEMBL document CHEMBL3217707, “A matched molecular pair analysis of in vitro human microsomal metabolic stability measurements for heterocyclic replacements of di-substituted benzene containing compounds identification of those isosteres more likely to have beneficial effects” (Medchemcomm, 2012).

Broadly, the logD is the decadic logarithm of the distribution of all forms, ionised or not, between an organic phase and buffer at a given pH. A higher logD goes with higher lipophilicity.

A short description of data set [1]: Intrinsic clearance in human liver microsomes after 30 mins. It is filed as ADME. The note with it: read-out: CLH.
Data set [2] can be described thus: Lipophilicity, log D of the compound at pH 7.4. Particulars: buffer.

With `CC(C)(C)OC(=O)N1CCN(c2ncc(OCc3ccc(S(C)(=O)=O)cc3)cn2)CC1`, the microsomal CLint in data set [1] stood at 60 µL/min/mg. With `CC(C)(C)OC(=O)N1CCN(c2cnc(OCc3ccc(S(C)(=O)=O)cc3)nc2)CC1`, the microsomal CLint in data set [1] worked out at 86.8 µL/min/mg.

For `CC(C)(C)OC(=O)N1CCN(c2ccc(OCc3ccc(S(C)(=O)=O)cc3)nn2)CC1`, in data set [1], the microsomal CLint worked out at 139 µL/min/mg. For the same molecule, the logD in data set [2] is reported as 2.8. As for `CC(C)(C)OC(=O)N1CCN(c2cnc(OCc3ccc(S(C)(=O)=O)cc3)cn2)CC1`, the microsomal CLint in data set [1] is 29.9 µL/min/mg. In data set [2], the logD worked out at 3.4. Turning to `CC(C)(C)OC(=O)N1CCN(c2ccc(OCc3ccc(S(C)(=O)=O)cc3)cn2)CC1`, the microsomal CLint in data set [1] was found to be 247 µL/min/mg. Moreover, the logD in data set [2] is 3.2. Take `CC(C)(C)OC(=O)N1CCN(c2ccc(OCc3ccc(S(C)(=O)=O)cc3)nc2)CC1`: in data set [1], the microsomal CLint was 105 µL/min/mg. Regarding `CC(C)(C)OC(=O)N1CCN(c2ccc(OCc3ccc(S(C)(=O)=O)cc3)cc2)CC1`, in data set [1], the microsomal CLint came out at 62.6 µL/min/mg. Besides, the logD in data set [2] came to 3.9. `CC(C)(C)OC(=O)N1CCN(c2ncc(OCc3ccc(S(C)(=O)=O)cc3)nn2)CC1`: the microsomal CLint in data set [1] is 131 µL/min/mg. In addition, in data set [2], the logD is on record as 2.9.
